Test results taken from ChEMBL document CHEMBL1150004, “A general approach toward the design of mechanism-based inactivators of serine proteinases: inactivation of human leukocyte elastase by a phthalimide derivative” (Bioorg Med Chem Lett, 1993).

Molecular target: T1, Neutrophil elastase (Homo sapiens) (UniProt P08246)
T1 sequence (whole entry): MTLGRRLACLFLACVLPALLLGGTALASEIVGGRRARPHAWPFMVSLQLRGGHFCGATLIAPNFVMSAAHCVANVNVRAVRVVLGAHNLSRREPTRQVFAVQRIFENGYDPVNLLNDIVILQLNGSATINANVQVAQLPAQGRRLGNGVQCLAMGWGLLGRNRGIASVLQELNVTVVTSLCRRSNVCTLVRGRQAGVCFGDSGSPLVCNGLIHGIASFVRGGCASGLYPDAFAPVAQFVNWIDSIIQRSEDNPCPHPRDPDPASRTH
Experiment: Bimolecular rate constant of the interaction of compound with Human Leukocyte Elastase was evaluated

Compound: CCOC(=O)C(F)N1C(=O)c2ccccc2C1=O (stereo unspecified)
- K obs / 1: 40 M⁻¹ s⁻¹
